In patent US10443103B2, “Chemotherapy regimen selection” (Innomedicine, LLC, priority 2015, dated 2019):

Tested on: breast cancer
Experiment: Observed pathologic complete response (pCR) rate after neoadjuvant chemotherapy, GEO data sets
Type: in vivo, human
Details: Total of 7 GEO data sets, whole study population
Description: Herein, data was reanalyzed from several previous studies in which breast cancer patients were treated with neoadjuvant chemotherapy. Chemotherapies can be given at different stages of breast cancer: before surgery (also called neoadjuvant chemotherapy), after surgery and after metastasis. Neoadjuvant chemotherapy is often used to shrink tumors to make them more operable. There are two main categories of cytotoxic chemotherapy drugs for breast cancer: anthracyclines and taxanes. Many different combinations of the two types of drugs have been used for treating breast cancer, despite the fact that no effective guidelines are available for the selection of a specific regimen for a patient (Dotan, et al., 2010). Herein, data was collected from 1111 breast cancer patients from GEO database (Gene Expression Omnibus (Edgar, et al., 2002, Barrett, et al., 2013)), where clinical information including responses to chemotherapy and gene expression data are available. […] Among the 1111 patients, 21.2% of them have pCR and the rest have RD as their responses. […]
1111 breast cancer tumor samples were collected from 7 data series in GEO database (Gene Expression Omnibus (Takada, et al., 2012, Albain, et al., 2010)) (Table 2). […] R (Liu, et al., 2012) package Affyio (Edgar, et al., 2002) was used to read and normalize the Affymetrix® data. […]

Compound	percentage of patients who have pCR [%]
CC(=O)O[C@@]12CO[C@@H]1C[C@H](O)[C@@]1(C)C(=O)[C@H](O)C3=C(C)[C@@H](OC(=O)[C@H](O)[C@@H](NC(=O)OC(C)(C)C)c4ccccc4)C[C@@](O)([C@@H](OC(=O)c4ccccc4)[C@H]21)C3(C)C [docetaxel]	33.1
CC(=O)O[C@H]1C(=O)[C@@]2(C)[C@H]([C@H](OC(=O)c3ccccc3)[C@]3(O)C[C@H](OC(=O)[C@H](O)[C@@H](NC(=O)c4ccccc4)c4ccccc4)C(C)=C1C3(C)C)[C@]1(OC(C)=O)CO[C@@H]1C[C@@H]2O [paclitaxel]	19.7
